Calls of active or inactive are those of the source. The rule behind the calls is not given here.
Columns and labels:
[1] = molecular target: T1, DNA topoisomerase 1 (Homo sapiens) (UniProt P11387); test: Inhibition of Topoisomerase I (unknown origin) using pBR322 DNA as substrate at 2 uM incubated for 15 mins by EtBr staining based agarose gel electrophoresis method
T1 sequence (whole entry): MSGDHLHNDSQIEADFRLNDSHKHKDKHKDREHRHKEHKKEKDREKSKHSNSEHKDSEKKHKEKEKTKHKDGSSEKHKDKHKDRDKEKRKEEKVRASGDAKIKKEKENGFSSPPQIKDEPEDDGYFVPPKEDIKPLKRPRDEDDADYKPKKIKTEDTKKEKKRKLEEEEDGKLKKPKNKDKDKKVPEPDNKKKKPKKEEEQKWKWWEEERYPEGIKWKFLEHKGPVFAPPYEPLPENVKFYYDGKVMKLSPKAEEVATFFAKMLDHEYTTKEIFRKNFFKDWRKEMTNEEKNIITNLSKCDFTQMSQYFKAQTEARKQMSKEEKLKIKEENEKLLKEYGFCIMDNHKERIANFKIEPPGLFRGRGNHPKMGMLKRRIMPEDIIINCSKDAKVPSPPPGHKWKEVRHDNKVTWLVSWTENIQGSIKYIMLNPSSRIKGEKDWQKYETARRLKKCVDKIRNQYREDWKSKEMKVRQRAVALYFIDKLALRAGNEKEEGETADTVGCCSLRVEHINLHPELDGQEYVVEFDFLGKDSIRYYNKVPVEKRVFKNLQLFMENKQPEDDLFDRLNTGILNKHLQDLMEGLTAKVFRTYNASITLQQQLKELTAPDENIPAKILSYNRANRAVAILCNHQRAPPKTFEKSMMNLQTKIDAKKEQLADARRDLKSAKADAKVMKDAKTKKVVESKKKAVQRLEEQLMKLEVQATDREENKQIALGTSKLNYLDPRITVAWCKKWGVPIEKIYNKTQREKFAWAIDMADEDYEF

HCT-116 = test: Antitumor activity against human HCT-116 cells xenografted with BALB/c mouse assessed as tumor growth inhibition by measuring T/C ratio at 100 mg/kg,po administrated once daily for 21 days; format: functional; conditions: time 21 day
[2] = molecular target: T1, DNA topoisomerase 1 (Homo sapiens); test: Inhibition of Topoisomerase I (unknown origin) using pBR322 DNA as substrate at 5 uM incubated for 15 mins by EtBr staining based agarose gel electrophoresis method
NCI-H446 [3] = test: Antitumor activity against human NCI-H446 cells xenografted with BALB/c mouse assessed as tumor growth inhibition at 100 mg/kg,po administrated once daily for 21 days relative to control; format: functional; conditions: NCI-H446, 504 h, time 21 day, read-out: TGI
NCI-H446 [4] = test: Antitumor activity against human NCI-H446 cells xenografted with BALB/c mouse assessed as tumor growth inhibition at 50 mg/kg,po administrated once daily for 21 days relative to control; format: functional; conditions: NCI-H446, 504 h, time 21 day, read-out: TGI

## CN(C)CCCn1c2cc3c(cc2c2ncc4ccccc4c21)OCO3
[1]
  inhibition: Active
HCT-116
  T/C: 18%
[2]
  inhibition: Active
NCI-H446 [3]
  inhibition in vivo at 100 mg/kg: 66.1%
NCI-H446 [4]
  inhibition in vivo at 50 mg/kg: 49.2%
